# Tested on: weedy Glycine max
# Test: Greenhouse trials, post-emergence herbicidal efficacy of L-glufosinate, other herbicides and their combinations (observed vs Colby expected)
# Type: in vivo
# Conditions: for Control %: Table 1
# Protocol: Greenhouse trials were carried out to evaluate the efficacy of the combination of L-glufosinate and the other herbicides on weedy Glycine max. The soil used was sandy clay loam—Sand: 68.0%; Silt: 8.0%; Clay: 24.0%. All treatments were in 3 replications per treatment with a spray volume of […].
# The expected efficacy of a combination of L-glufosinate and the other herbicides was calculated using the well-established Colby method. Any difference between the observed and “expected” efficacy could be attributed to synergy between the two compounds.
# In the Colby method, the expected (or predicted) response of a combination of herbicides is calculated by taking the product of the observed response for each individual component of the combination when applied alone, divided by 100, and subtracting this value from the sum of the observed response for each component when applied alone. An unexpected enhancement in efficacy of the combination is then determined by comparing the observed response of the combination to the expected (or predicted) response as calculated from the observed response of each individual component alone. If the observed response of the combination is greater than the expected (or predicted) response, or stated conversely, if the difference between the observed and expected response is greater than zero, then the combination is said to be synergistic or unexpectedly effective (Colby, S. R., Weeds, 1967(15), p. 20-22). The Colby method requires only a single dose of each herbicide applied alone and the mixture of both doses. The formula used to calculate the expected efficacy (EE) which was compared with the observed efficacy (OE) to determine the efficacy of the present invention is explained hereinbelow:
# The expected efficacy for a combination of two active ingredients is as follows:
# The expected efficacy for a combination of three active ingredients is as follows:
# […] The target weed was weedy Glycine max, and the concentration of the herbicide and the results are recorded in the table 1 below:
# [1] = 14 DAA, dose a.i. g/h: L-glufosinate 150, oxyfluorfen 107.1, imazethapyr 75, carfentrazone 7.5
# [2] = 21 DAA, dose a.i. g/h: L-glufosinate 150, oxyfluorfen 107.1, imazethapyr 75, carfentrazone 7.5
# [3] = 28 DAA, dose a.i. g/h: L-glufosinate 150, oxyfluorfen 107.1, imazethapyr 75, carfentrazone 7.5
# [4] = 35 DAA, dose a.i. g/h: L-glufosinate 150, oxyfluorfen 107.1, imazethapyr 75, carfentrazone 7.5
structure (smiles),measurement,setting,value
"CCSC(C)CC1CC(=O)C(/C(CC)=N/OC/C=C/Cl)=C(O)C1 (stereo not shown) [Clethodim, clethodim]",% control,"Table 6, 3 DAA, g ai/h: L-glufosinate 150, clethodim 45",0%
same,% control,"Table 6, 7 DAA, g ai/h: L-glufosinate 150, clethodim 45",0%
same,% control,"Table 6, 14 DAA, g ai/h: L-glufosinate 150, clethodim 45",0%
same,% control,"Table 6, 21 DAA, g ai/h: L-glufosinate 150, clethodim 45",0%
same,% control,"Table 6, 28 DAA, g ai/h: L-glufosinate 150, clethodim 45",0%
same,% control,"Table 6, 35 DAA, g ai/h: L-glufosinate 150, clethodim 45",0%
"Cc1nn(-c2cc(CC(Cl)C(=O)O)c(Cl)cc2F)c(=O)n1C(F)F (stereo not shown) [Carfentrazone, carfentrazone]",Control %,[1],50.3%
same,Control %,"14 DAA, dose a.i. g/h: carfentrazone 9.0, L-glufosinate 150",51.7%
same,Control %,[2],44.3%
same,Control %,"21 DAA, dose a.i. g/h: carfentrazone 9.0, L-glufosinate 150",51.0%
same,Control %,[3],44.3%
same,Control %,"28 DAA, dose a.i. g/h: carfentrazone 9.0, L-glufosinate 150",51.0%
same,Control %,[4],39.3%
same,Control %,"35 DAA, dose a.i. g/h: carfentrazone 9.0, L-glufosinate 150",46.7%
"O=C(O)COc1ccc(Cl)cc1Cl [2,4-D]",% control,"Table 4, 7 DAA, g ai/h: L-glufosinate 150, 2,4-D 204",41.7%
same,% control,"Table 4, 14 DAA, g ai/h: L-glufosinate 150, 2,4-D 204",42.7%
same,% control,"Table 4, 21 DAA, g ai/h: L-glufosinate 150, 2,4-D 204",50.7%
same,% control,"Table 4, 28 DAA, g ai/h: L-glufosinate 150, 2,4-D 204",53.3%
same,% control,"Table 4, 35 DAA, g ai/h: L-glufosinate 150, 2,4-D 204",48.3%
"O=C(O)CNCP(=O)(O)O [Glyphosate, glyphosate]",% control,"Table 2, 3 DAA, g ai/h: L-glufosinate 150, glyphosate 379",0%
same,% control,"Table 2, 7 DAA, g ai/h: L-glufosinate 150, glyphosate 379",0%
same,% control,"Table 2, 14 DAA, g ai/h: L-glufosinate 150, glyphosate 379",0%
same,% control,"Table 2, 21 DAA, g ai/h: L-glufosinate 150, glyphosate 379",0%
same,% control,"Table 2, 28 DAA, g ai/h: L-glufosinate 150, glyphosate 379",0%
same,% control,"Table 2, 35 DAA, g ai/h: L-glufosinate 150, glyphosate 379",0%
"O=C(O)COc1nc(Cl)c(Cl)cc1Cl [Triclopyr, triclopyr]",% control,"Table 5, 7 DAA, g ai/h: L-glufosinate 150, triclopyr 288",50%
same,% control,"Table 5, 14 DAA, g ai/h: L-glufosinate 150, triclopyr 288",79.3%
"CCOc1cc(Oc2ccc(C(F)(F)F)cc2Cl)ccc1[N+](=O)[O-] [Oxyfluorfen, oxyfluorfen]",Control %,[1],46.7%
same,Control %,[2],45.0%
same,Control %,[3],43.3%
same,Control %,[4],35.0%
"CCc1cnc(C2=NC(C)(C(C)C)C(=O)N2)c(C(=O)O)c1 (stereo not shown) [Imazethapyr, imazethapyr]",Control %,[1],10%
same,Control %,[2],20.0%
same,Control %,[3],20.0%
same,Control %,[4],15.0%
"C#CCN1C(=O)COc2cc(F)c(N3C(=O)C4=C(CCCC4)C3=O)cc21 [Flumioxazin, flumioxazin]",% control,"Table 3, 3 DAA, g ai/h: L-glufosinate 150, flumioxazin 30",7.7%
same,% control,"Table 3, 7 DAA, g ai/h: L-glufosinate 150, flumioxazin 30",31.7%
same,% control,"Table 3, 21 DAA, g ai/h: L-glufosinate 150, flumioxazin 30",40%
same,% control,"Table 3, 28 DAA, g ai/h: L-glufosinate 150, flumioxazin 30",40%
same,% control,"Table 3, 35 DAA, g ai/h: L-glufosinate 150, flumioxazin 30",30%
"CC(Oc1ccc(Oc2ncc(C(F)(F)F)cc2Cl)cc1)C(=O)O (stereo not shown) [Haloxyfop, haloxyfop]",% control,"Table 7, 3 DAA, g ai/h: L-glufosinate 150, haloxyfop 50",5%
same,% control,"Table 7, 7 DAA, g ai/h: L-glufosinate 150, haloxyfop 50",13.3%
same,% control,"Table 7, 14 DAA, g ai/h: L-glufosinate 150, haloxyfop 50",15%
same,% control,"Table 7, 21 DAA, g ai/h: L-glufosinate 150, haloxyfop 50",12.3%
same,% control,"Table 7, 28 DAA, g ai/h: L-glufosinate 150, haloxyfop 50",12.3%
same,% control,"Table 7, 35 DAA, g ai/h: L-glufosinate 150, haloxyfop 50",12.3%

# From patent US20230115298A1, “METHOD FOR CONTROLLING THE GROWTH OF UNDESIRABLE VEGETATION” (UPL Limited, priority 2021, published 2023)
